Data reported in patent US20260327243A1, “SPIRO-HETEROCYCLIC INHIBITORS OF KRAS G12C MUTANT PROTEINS AND USES THEREOF” (AMGEN INC., priority 2023, published 2026).

Columns and labels:
[1] = system: MIA PaCa-2 cells; test: Cell Viability Assay, MIA PaCa-2; format: cell-based; conditions: Homo sapiens, MIA PaCa-2, 72 h, human pancreatic carcinoma, CellTiter-Glo
Experimental: (§1) MIA PaCa-2 (human pancreatic carcinoma; ATCC CRL-1420) or A549 (human lung carcinoma; ATCC CCL-185) cells were cultured in RPMI 1640 medium containing 10% fetal bovine serum and 1×penicillin/streptomycin/L-glutamine. Cells were seeded in 384-well plates at a density of 1.67E+04 cells/mL and incubated at 37° C., 5% CO2, overnight. Serially-diluted compound or DMSO was added to the cells, and plates were incubated at 37° C., 5% CO2 for 72 h. Cell viability was measured using a CellTiter-Glo® Luminescent Cell Viability Assay kit (Promega) according to the manufacturer's protocol. The luminescence signal of treated samples was normalized to DMSO control, and data were analyzed using a 4-parameter logistic model to calculate IC50 values.
(§2) The following data (Table 3) categorizes the IC50 of each compound for inhibiting enzymatic activity of KRAS^G12C in the indicated cells.

[2] = system: A549 cells; test: Cell Viability Assay, A549; format: cell-based; conditions: A549; human lung carcinoma; 72 h; CellTiter-Glo
Experimental: as §1, §2

[3] = target: KRAS^G12C (Homo sapiens, UniProt P01116, C118A/G12C); test: Coupled Nucleotide Exchange Assay; format: biochemical; conditions: GDP-bound KRAS (aa 1-169) G12C/C118A; 2 h compound pre-incubation; SOS-mediated exchange, 30 min; cRAF binding (AlphaLISA)
How it was run: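 GDP-bound His-tagged KRAS aa 1-169 (G12C/C118A) pre-incubated 2 h with compound in 25 mM HEPES pH 7.4, 10 mM MgCl2, 0.01% Triton X-100 (±0.1% BSA), then SOS (aa 564-1049) plus GTP added for 30 min. GST-cRAF RBD binding read by AlphaLISA; DMSO-normalized, 4-parameter fit gives IC50.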

Sequence of KRAS^G12C (P01116 1-169 isoform P01116-2 G12C/C118A): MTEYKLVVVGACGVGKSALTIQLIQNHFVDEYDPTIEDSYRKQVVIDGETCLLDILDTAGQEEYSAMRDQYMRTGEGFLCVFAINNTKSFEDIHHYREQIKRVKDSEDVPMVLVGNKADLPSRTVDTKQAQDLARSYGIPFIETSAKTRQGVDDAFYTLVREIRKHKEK

Row | Compound | IC50 [1] | IC50 [2] | IC50 [3]
1 | C=CC(=O)N1CCN([C@@H]2CN(c3cc(N4CCC5(CC4)OCc4ncsc45)nc(C(F)(F)F)n3)[C@@H]2C)CC1 [Compound 3-001, 1-(4-((2R,3R)-1-(6-(4H-Spiro[furo[3,4-d]thiazole-6,4′-piperidin]-1′-yl)-2-(trifluoromethyl)pyrimidin-4-yl)-2-methylazetidin-3-yl)piperazin-1-yl) prop-2-en-1-one] | 0.665 µM | > 5 µM | 0.376 µM
2 | C=CC(=O)N1CCN([C@@H]2CN(c3cc(N4CC[C@]5(C[C@H]4C)OC[C@H](CO)n4ncc(C)c45)nc(C(F)F)n3)[C@@H]2C)CC1 (single isomer, unassigned) [Compound 3-088-2] | 0.128 µM | > 5 µM | 0.072 µM
3 | C=CC(=O)N1CCN(C2CN(c3cc(N4CCC5(CC4)c4ccccc4CN5C)nc(C(F)(F)F)c3C#N)C2)CC1 [Compound 3-014] | 0.694 µM | > 5 µM | 0.498 µM
4 | C=CC(=O)N1CCN([C@@H]2CN(c3cc(N4CCC5(CC4)OCC=C5C)nc(C(F)F)c3C)[C@@H]2C)CC1 [Compound 3-057, 1-(4-((2R,3R)-1-(2-(Difluoromethyl)-3-methyl-6-(4-methyl-1-oxa-8-azaspiro[4.5]dec-3-en-8-yl)pyridin-4-yl)-2-methylazetidin-3-yl)piperazin-1-yl) prop-2-en-1-one] | 0.272 µM | > 5 µM | 0.288 µM
5 | C=CC(=O)N1CCN([C@@H]2CN(c3cc(N4CC[C@]5(C[C@H]4C)OCCn4ncc(C)c45)nc(C(F)F)n3)[C@@H]2C)CC1 [Compound 3-078, 1-(4-((2R,3R)-1-(2-(difluoromethyl)-6-((2R,4R)-2,3′-dimethyl-6′,7′-dihydro-1H-spiro[piperidine-4,4′-pyrazolo[5.1-c][1,4]oxazin]-1-yl)-4-pyrimidinyl)-2-methyl-3-azetidinyl)-1-piperazinyl)-2-propen-1-one] | 0.387 µM | > 5 µM | 0.089 µM
6 | C=CC(=O)N1CCN([C@@H]2CN(c3cc(N4CCC5(C[C@H]4C)OCC=C5C)nc(C(F)F)n3)[C@@H]2C)CC1 (stereo partly drawn) [Compound 3-003, 1-(4-((2R,3R)-1-(2-(Difluoromethyl)-6-((7R)-4,7-dimethyl-1-oxa-8-azaspiro[4.5]dec-3-en-8-yl)pyrimidin-4-yl)-2-methylazetidin-3-yl)piperazin-1-yl) prop-2-en-1-one] | 0.832 µM | > 5 µM | 0.512 µM
7 | C=CC(=O)N1CCN([C@@H]2CN(c3cc(N4CCC5(CC4)OCC=C5C)nc(C(F)(F)F)c3C#N)[C@@H]2C)CC1 [Compound 3-052, 4-((2R,3R)-3-(4-Acryloylpiperazin-1-yl)-2-methylazetidin-1-yl)-6-(4-methyl-1-oxa-8-azaspiro[4.5]dec-3-en-8-yl)-2-(trifluoromethyl)nicotinonitrile] | 0.254 µM | 4.55 µM | 0.161 µM
8 | C=CC(=O)N1CCN([C@@H]2CN(c3cc(N4CCC5(CC4)OC4(COC4)c4nccc(C)c45)nc(C(F)F)n3)[C@@H]2C)CC1 [Compound 3-103, 1-(4-((2R,3R)-1-(2-(difluoromethyl)-6-(4′-methyl-1″H-dispiro[oxetane-3,7′-furo[3,4-b]pyridine-5′,4″- piperidin]-1″-yl)-4-pyrimidinyl)-2-methyl-3-azetidinyl)-1-piperazinyl)-2-propen-1-one] | 0.171 µM | > 5 µM | 0.036 µM
9 | C=CC(=O)N1CCN([C@@H]2CN(c3cc(N4CCC5(OCC=C5C)C(C)C4)nc(C(F)(F)F)n3)[C@@H]2C)CC1 (relative stereo) [Compound 3-060, 1-(4-((2R,3R)-1-(6-((5R,6S)-4,6-Dimethyl-1-oxa-8-azaspiro[4.5]dec-3-en-8-yl)-2-(trifluoromethyl)pyrimidin-4-yl)-2-methylazetidin-3-yl)piperazin-1-yl) prop-2-en-1-one] | 1.09 µM | > 5 µM | 0.406 µM
10 | C=CC(=O)N1CCN([C@@H]2CN(c3cc(N4CC[C@]5(C[C@H]4C)OC[C@H](COC)n4ncc(C)c45)nc(C(F)(F)F)n3)[C@@H]2C)CC1 (single isomer, unassigned) [Compound 3-089-1] | 0.102 µM | > 5 µM | 0.042 µM
11 | C=CC(=O)N1CCN([C@@H]2CN(c3cc(N4CCC5(CC4)OC[C@H](C)n4ncc(C)c45)nc(C(F)(F)F)n3)[C@@H]2C)CC1 [Compound 3-101, 1-(4-((2R,3R)-1-(6-((7′S)-3′,7′-dimethyl-6′,7′-dihydro-1H-spiro[piperidine-4,4′-pyrazolo[5.1-c][1,4]oxazin]-1-yl)-2-(trifluoromethyl)-4-pyrimidinyl)-2-methyl-3-azetidinyl)-1-piperazinyl)-2-propen-1-one] | 0.259 µM | > 5 µM | 0.07 µM
12 | C=CC(=O)N1CCN([C@@H]2CN(c3cc(N4CCC5(CC4)OC[C@H](COC)n4ncc(C)c45)nc(C(F)(F)F)n3)[C@@H]2C)CC1 [Compound 3-098] | 0.224 µM | > 5 µM | 0.131 µM
13 | C=CC(=O)N1CCN([C@@H]2CN(c3cc(N4CCC5(CC4)c4c(C)ccnc4C4(COC4)C5F)nc(C(F)(F)F)n3)[C@@H]2C)CC1 (stereo partly drawn) [Compound 3-093, 1-(4-((2R,3R)-1-(6-(6′-fluoro-4′-methyl-1″H-dispiro[oxetane-3,7′-cyclopenta[b]pyridine-5′,4″- piperidin]-1″-yl)-2-(trifluoromethyl)-4-pyrimidinyl)-2-methyl-3-azetidinyl)-1-piperazinyl)-2-propen-1-one] | 0.271 µM | > 5 µM | 0.107 µM
14 | C=CC(=O)N1CCN([C@@H]2CN(c3cc(N4CCC5(CC4)OCc4nccc(C)c45)nc(C(F)(F)F)n3)[C@@H]2C)CC1 [Compound 3-079, 1-(4-((2R,3R)-2-methyl-1-(6-(4-methyl-1′H,7H-spiro[furo[3,4-b]pyridine-5,4′-piperidin]-1′-yl)-2-(trifluoromethyl)-4-pyrimidinyl)-3-azetidinyl)-1-piperazinyl)-2-propen-1-one] | 0.18 µM | > 5 µM | 0.081 µM
15 | C=CC(=O)N1CCN([C@@H]2CN(c3cc(N4CC[C@]5(C[C@H]4C)OC[C@@H](COC)n4ncc(C)c45)nc(C(F)F)n3)[C@@H]2C)CC1 (single isomer, unassigned) [Compound 3-090-1] | 0.193 µM | > 5 µM | 0.145 µM
16 | C=CC(=O)N1CCN([C@@H]2CN(c3cc(N4CCC5(CC4)OCCc4nccc(C)c45)nc(C(F)(F)F)n3)[C@@H]2C)CC1 [Compound 3-094, 1-(4-((2R,3R)-2-methyl-1-(6-(4′-methyl-7′,8′-dihydro-1H-spiro[piperidine-4,5′-pyrano[4.3-b]pyridin]-1-yl)-2-(trifluoromethyl)-4-pyrimidinyl)-3-azetidinyl)-1-piperazinyl)-2-propen-1-one] | 0.175 µM | > 5 µM | 0.052 µM
17 | C=CC(=O)N1CCN(C2CN(c3cc(N4CCC5(CC4)OCc4cnn(C)c45)nc(C(F)(F)F)c3C#N)C2)CC1 [Compound 3-049, 4-(3-(4-acryloylpiperazin-1-yl)azetidin-1-yl)-6-(1-methyl-1,4-dihydrospiro[furo[3,4-c]pyrazole-6,4′-piperidin]-1′-yl)-2-(trifluoromethyl)nicotinonitrile] | 0.979 µM | > 5 µM | 0.664 µM
